{"source": "patent US9050375B2", "about": "“Bi-specific digoxigenin binding antibodies” (priority 2009, dated 2015)", "molecules": {"B1": {"name": "murine DIG-IgG 19-11: hybridoma clone 19-11 derived murine anti-digoxigenin IgG1 kappa; VL Seq. ID. NO. 1, VH Seq. ID. NO. 2 (antibody, listed as Mus musculus, V domains shown)", "VH": "MNFVLSLIFLALILKGVQCEVQLVESGGGLVKPGGSLKLSCAVSGFTFSDYAMSWIRQTPENRLEWVASINIGATYAYYPDSVKGRFTISRDNAKNTLFLQMSSLGSEDTAMYYCARPGSPYEYDKAYYSMAYWGPGTSVTVSS", "VL": "MSSAQFLGLLLLCFQGTRCDVQMTQSTSSLSASLGDRVTISCRASQDIKNYLNWYQQKPGGTVKLLIYYSSTLLSGVPSRFSGRGSGTDFSLTITNLEREDIATYFCQQSITLPPTFGGGTKLEIK", "notes": "hybridoma clone 19-11 derived murine anti-digoxigenin IgG1 kappa; ID; NO"}}, "key": {"[1]": {"system": "Eg5 mRNA in HeLa-S3 cells", "assay": "Eg5 bDNA assay of transfected siRNAs", "type": "cell-based, human", "settings": "Lipofectamine 2000 transfection, 24 hours", "text": "To evaluate whether additions or alterations of siRNAs by digoxygenin alters its biological activity, we performed in vitro assays in cell culture. For that, we chose to assess the activity of siRNA that inactivates the mRNA of Eg5. The direct effect of Eg5 siRNA activity is down-regulation of its cognate mRNA. This can be quantified by bDNA (branched DNA) assays, which detect the amount of specific mRNAs in cells (Burris et al., 1999, Molecular Endocrinology). To perform these assays, we seeded a defined number of the respective cell type into 96-well plates and allowed them to attach over night. The next day cells were transfected with desired amounts of a certain siRNA or treated with the agent whose effect on the mRNA-level should be analysed. After 24 hours the QuantiGene kit protocol was followed according to the instructions of the manufacturer (Affymetrix) in order to quantify the mRNA levels. Briefly, the cell lysates were transferred to a capture plate in the presence of a gene-specific probe set and then incubated at 53° C. over night. Wells were washed. They were then incubated at 53° C. sequentially with an Amplifier and an alkaline phosphatase-linked label probe with a wash between the incubations. After a final wash, the luminescent alkaline phosphatase substrate dioxitane was added and was incubated for 30 min at 53° C. The luminescence was detected using a InfiniteF200 luminescence reader (Tecan Austria, Gröding). The biological activity of siRNAs that target Eg5 can not only be determined by bDNA analyses, but also by the phenotype that is caused by Eg5 mRNA depletion in growing cells. Eg5 is a motor protein that belongs to the kinesin-like protein family. Eg5, also known as KSP (kinesin spindle protein), is essential for the formation of the bipolar mitotic spindle and is required for the proper separation of the spindle poles. Depletion of Eg5 leads to the formation of characteristic monoaster spindles and activates the spindle checkpoint. This causes a mitotic arrest that ultimately leads to apoptosis (Tao et. al., Molecular and cellular biology. 2007 January; 27(2):689-98) (Tao W. et. al., Cancer Cell. 2005; 8:49-59.) Because of that, inactivation of Eg5 by siRNA mediates in many cases a cytotoxic phenotype to cultured cells. Therefore, the biological activity of Eg5 siRNA can be analyzed by monitoring the number of living cells.\nTable 7 summarizes the results of the bDNA and cytotox assays that we performed to compare the biological activities of transfected siRNAs with that of their transfected digoxygenated counterparts. For the bDNA assays, we seeded HeLa-S3 cells into 96-well plates and allowed them to attach over night. The next day cells were transfected with the indicated amounts of siRNA using the Lipofectamine™ 2000 transfection reagent according to the instructions of the manufacturer (Invitrogen). After 24 hours the QuantiGene kit protocol was followed according to the instructions of the manufacturer (Affymetrix) in order to quantify the mRNA levels of the Eg5 mRNA."}, "KPL-4 cells": {"system": "KPL-4 cells", "assay": "Cytotox assay (CellTiter-Glo) of transfected siRNAs", "type": "cell-based, human", "settings": "Dharmafect transfection, 48 hours", "description": "To measure the number of living cells the CellTiter-Glo Luminescent Cell Viability Assay (Promega Madison, Wis.) assay was applied according to the protocol supplied by the manufacturer. In this assay the cells are lysed and a luminescent signal proportional to the ATP amount is generated. The ATP amount is directly proportional to the number of living cells. The 96 well plates were then analyzed in a InfiniteF200 luminescence reader (Tecan Austria, Gröding).\nFor the cytotox assays, KPL-4 cells were seeded at a density of 7000 cells per well in 96 well plates. The cells were incubated for 24 hours at 37° C., 5% CO2 and 85% humidity in RPMI with 10% FCS and L-Glutamine. The next day cells were transfected with the indicated amounts of siRNA using the Dharmafect transfection reagent according to the instructions of the manufacturer (Dharmacon). After 48 hours the cells were treated with the CellTiter-Glo-assay reagent according to the manufacturers instructions."}, "[2]": {"assay": "Excitation and emission spectra of Cy5, Dig-Cy5 and complex", "type": "physicochemical", "text": "To evaluate whether digoxygenation of Cy5 alters its fluorescence features, we compared the excitation and emission spectra of Cy5 and compared it with the spectra of the newly generated Dig-Cy5 and with Dig-Cy5 within a complex with bispecific antibodies. […] We conclude that Dig-Cy5 and -complexes can be applied for antibody-mediated targeting and in vivo imaging."}, "Eg5-siRNA-DIG": {"target": "Eg5-siRNA-DIG", "assay": "SPR (Biacore) binding to mono-digoxygenated siRNA", "settings": "25° C.", "procedure": "(§2) For that, binding properties of the recombinant <Dig> derivatives were analyzed by surface plasmon resonance (SPR) technology using a Biacore T100 or Biacore 3000 instrument (GE Healthcare Bio-Sciences AB, Uppsala). […] To perform the binding studies capturing anti-human IgG antibody was immobilized on the surface of a CM5 biosensor chip using amine-coupling chemistry. Flow cells were activated with a 1:1 mixture of 0.1 M N-hydroxysuccinimide and 0.1 M 3-(N,N-dimethylamino)propyl-N-ethylcarbodiimide at a flow rate of 5 μl/min. […] A reference control flow cell was treated in the same way but with vehicle buffers only instead of the capturing antibody. Surfaces were blocked with an injection of 1 M ethanolamine/HCl pH 8.5. […]\n(§3) Anti-mouse IgG antibody was immobilized on the surface of a CM5 biosensor chip in the same fashion as described above. […] The samples to be analyzed were diluted in HBS-P (10 mM HEPES, pH 7.4, 150 mM NaCl, 0.005% Surfactant P20) and injected at a flow rate of 5 μl/min. […] Signals were detected at a rate of one signal per second.\n(§4) The samples to be analyzed were diluted in HBS-P and injected at a flow rate of 5 μl/min. […]"}, "Eg5-siRNA-(2×)DIG": {"target": "Eg5-siRNA-(2×)DIG", "assay": "SPR (Biacore) binding to bi-digoxygenated siRNA", "settings": "25° C., read-out: KD, binding of siRNA-(2x)DIG", "procedure": "as §2, §3, §4"}, "DIG-Myoglobin": {"system": "DIG-Myoglobin", "assay": "SPR binding to mono-digoxygenated protein DIG-myoglobin", "description": "(§1) For that, binding properties of the recombinant <Dig> derivatives were analyzed by surface plasmon resonance (SPR) technology using a Biacore T100 or Biacore 3000 instrument (GE Healthcare Bio-Sciences AB, Uppsala). This system is well established for the study of molecule interactions. It allows a continuous real-time monitoring of ligand/analyte bindings and thus the determination of association rate constants (ka), dissociation rate constants (kd), and equilibrium constants (KD) in various assay settings. SPR-technology is based on the measurement of the refractive index close to the surface of a gold coated biosensor chip. Changes in the refractive index indicate mass changes on the surface caused by the interaction of immobilized ligand with analyte injected in solution. If molecules bind to immobilized ligand on the surface the mass increases, in case of dissociation the mass decreases. To perform the binding studies capturing anti-human IgG antibody was immobilized on the surface of a CM5 biosensor chip using amine-coupling chemistry. Flow cells were activated with a 1:1 mixture of 0.1 M N-hydroxysuccinimide and 0.1 M 3-(N,N-dimethylamino)propyl-N-ethylcarbodiimide at a flow rate of 5 μl/min. […] A reference control flow cell was treated in the same way but with vehicle buffers only instead of the capturing antibody. Surfaces were blocked with an injection of 1 M ethanolamine/HCl pH 8.5. To compare the binding of the humanized protein variants with that of the murine <Dig> IgG from the original hybridoma 19-11, capturing anti-mouse IgG antibody was immobilized on the surface of a CM5 biosensor chip in the same fashion as described above for the anti-human IgG antibody. To evaluate the functionality of the recombinant <Dig> derivatives, binding of the recombinant hu<Dig> modules, incl. (i) humanized IgG, (ii) fusion proteins harboring hu<Dig> scFv or (iii) disulfide-stabilized scFvs was assayed with different digoxygenated antigens The resulting binding affinities were compared to the binding of the murine ‘wildtype’ DIG-IgG from which the recombinant humanized modules were derived.\nAnother SPR study was performed in which the binding affinity of <DIG>-hu2, IGF1R-DIG and <DIG> M-19-11 was compared in terms of binding to the mono-digoxygenated protein DIG-myoglobin."}, "DIG-siRNA2349": {"target": "DIG-siRNA2349", "assay": "SPR binding to DIG-siRNA2349", "settings": "analyte DIG-siRNA2349; replicate lines; listed as <DIG>M-19-11", "description": "as §1, with “derived. […]” for “derived.”"}, "[3]": {"settings": "analyte DIG-Myoglobin, replicate lines, listed as <DIG>M-19-11"}}, "note": "Where “and” joins values, the source holds several entries; their conditions need not be identical. Equal entries are not always repeated. {Dig} = digoxigenin coupled through a C6 amino linker; {Cy5} = Cy5 fluorescent dye label; d = 2'-deoxy (DNA); m = 2'-O-methyl; r = 2'-OH (RNA)", "data": [{"molecule": "Eg5 siRNA: siRNA targeting Eg5, Seq. ID NO. 24/31 (chain 1 CUGAAGACCUGAAGACAAUUU; chain 2 AUUGUCUUCAGGUCUUCAGUU; chain 1: sugars from the 5' end r18 m3, backbone not given here; chain 2: RNA, backbone not given here)", "values": [{"measurement": "IC50", "setting": "[1]", "result": 0.016, "unit": "nM"}, {"measurement": "IC50", "setting": "KPL-4 cells", "result": 28, "unit": "nM"}]}, {"molecule": "Dig-Luciferase siRNA: digoxygenated luciferase siRNA, Seq. ID NO. 23/30 (chain 1 CUUACGCUGAGUACUUCGATT; chain 2 UCGAAGUACUCAGCGUAAGTT; chain 1: DNA at T, 2'-O-methyl at CU, RNA at AG, 3' {Dig}, backbone not given here; chain 2: sugars from the 5' end rrrrrrmrrrmrrrrmrrrdd, backbone not given here; further chemistry not fully specified)", "values": [{"measurement": "IC50", "setting": "[1]", "result": "> 100", "unit": "nM"}]}, {"molecule": "Luciferase siRNA: control siRNA, Seq. ID NO. 22/29 (chain 1 CUUACGCUGAGUACUUCGATT; chain 2 UCGAAGUACUCAGCGUAAGTT; chain 1: DNA at T, 2'-O-methyl at CU, RNA at AG, backbone not given here; chain 2: sugars from the 5' end rrrrrrmrrrmrrrrmrrrdd, backbone not given here) [reference compound]", "values": [{"measurement": "IC50", "setting": "[1]", "result": "> 100", "unit": "nM"}]}, {"molecule": "Cy5 [reference compound]", "values": [{"measurement": "Emission wavelength (max.)", "setting": "[2]", "result": "at 670 nm"}, {"measurement": "Excitation wavelength", "setting": "[2]", "result": "575-605 nm"}]}, {"molecule": "Dig-Eg5-Cy5 siRNA: digoxygenated Cy5-labeled Eg5 siRNA, Seq. ID NO. 27/34 (chain 1 CUGAAGACCUGAAGACAAUUU; chain 2 AUUGUCUUCAGGUCUUCAGUU; chain 1: RNA, 5' {Cy5}, 3' {Dig}, backbone not given here; chain 2: RNA, backbone not given here)", "values": [{"measurement": "IC50", "setting": "[1]", "result": 0.013, "unit": "nM"}, {"measurement": "IC50", "setting": "KPL-4 cells", "result": 215, "unit": "nM"}]}, {"molecule": "Dig-Eg5 siRNA: mono-digoxygenated Eg5 siRNA, Seq. ID NO. 25/32 (chain 1 CUGAAGACCUGAAGACAAUUU; chain 2 AUUGUCUUCAGGUCUUCAGUU; chain 1: 2'-O-methyl at CU, RNA at AG, 3' {Dig}, backbone not given here; chain 2: RNA, backbone not given here; further chemistry not fully specified)", "values": [{"measurement": "IC50", "setting": "[1]", "result": 0.035, "unit": "nM"}, {"measurement": "IC50", "setting": "KPL-4 cells", "result": 4, "unit": "nM"}]}, {"molecule": "B1", "values": [{"measurement": "Kd", "setting": "Eg5-siRNA-DIG", "result": 0.269, "unit": "nM"}, {"measurement": "Kd", "setting": "Eg5-siRNA-(2×)DIG", "result": 0.017, "unit": "nM"}, {"measurement": "affinity to DIG-Myo compared with <DIG>-hu2 and disulfide-stabilized <DIG> scFv", "setting": "DIG-Myoglobin; SPR", "result": "about a hundred fold better"}, {"measurement": "ka", "setting": "DIG-Myoglobin; [3]", "result": "1.75e+06 M⁻¹ s⁻¹ and 2.28e+06 M⁻¹ s⁻¹"}, {"measurement": "kd", "setting": "DIG-Myoglobin; [3]", "result": "0.000676 s⁻¹ and 0.000675 s⁻¹"}, {"measurement": "Kd", "setting": "DIG-siRNA2349", "result": "0.276 nM and 0.371 nM"}, {"measurement": "ka", "setting": "DIG-siRNA2349", "result": "3.27e+06 M⁻¹ s⁻¹ and 2.26e+06 M⁻¹ s⁻¹"}, {"measurement": "kd", "setting": "DIG-siRNA2349", "result": "0.000903 s⁻¹ and 0.000838 s⁻¹"}]}]}
